For test [1], the target named is T1, PRMT5 (Homo sapiens, UniProt O14744).
T1 construct: purchased Viva (custom protein)
As to the kind of experiment: PRMT5 inhibition assay with SAM as cofactor. Format: biochemical. Particulars: against PRMT5 in the presence of SAM as cofactor. The source says: (§1) The Ki values can be calculated from the IC50 values as described in the Examples section. As detailed in the Examples section, for the assay performed in the presence of SAM, IC50=Ki×1.5 (Ki=IC50/1.5). For the assay performed in the presence of MTA, IC50=Ki×13.5 (Ki=IC50/13.5). Column 6 indicates the ratio between the Ki of compounds in the presence of SAM and the Ki of compounds in the presence of MTA

In test [2] the target is T1, PRMT5. Description: PRMT5 inhibition assay with no cofactor. The format is biochemical. Particulars: against PRMT5 with no cofactor; read-out: No Co-factor IC50.
For test [3], the target named is T1, PRMT5. Description: PRMT5 inhibition assay with MTA as cofactor. Format: biochemical. Particulars: for IC50: against PRMT5 with MTA as cofactor; for SAM/MTA Ratio: ratio of Ki in the presence of SAM to Ki in the presence of MTA, Ki=IC50/1.5 (SAM), Ki=IC50/13.5 (MTA).
Excerpt: as §1

Test [4] has as its system HAP1 MTAP-intact cell line. As to the kind of experiment: SDMA in-cell western assay, HAP1 MTAP-intact. The format is cell-based. Particulars: Homo sapiens. In a few lines: (§2)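 Symmetric dimethylarginine (SDMA) levels were measured by in-cell western in an isogenic HAP1 pair. One line expresses endogenous MTAP and the other is MTAP-null, with an IC50 derived in each.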
The subject of test [5] is HAP1 MTAP-deleted cell line. As to the kind of experiment: SDMA in-cell western assay, HAP1 MTAP-deleted. Format: cell-based. Particulars: for IC50: Homo sapiens, HAP1 MTAP-deleted (MTAP-null) cell line; for MTAP Intact/Deleted Ratio: IC50 ratio HAP1 MTAP-intact / HAP1 MTAP-deleted, >=3 fold considered MTAP-selective. The method in brief:
as §2

T1 sequence (O14744 whole entry): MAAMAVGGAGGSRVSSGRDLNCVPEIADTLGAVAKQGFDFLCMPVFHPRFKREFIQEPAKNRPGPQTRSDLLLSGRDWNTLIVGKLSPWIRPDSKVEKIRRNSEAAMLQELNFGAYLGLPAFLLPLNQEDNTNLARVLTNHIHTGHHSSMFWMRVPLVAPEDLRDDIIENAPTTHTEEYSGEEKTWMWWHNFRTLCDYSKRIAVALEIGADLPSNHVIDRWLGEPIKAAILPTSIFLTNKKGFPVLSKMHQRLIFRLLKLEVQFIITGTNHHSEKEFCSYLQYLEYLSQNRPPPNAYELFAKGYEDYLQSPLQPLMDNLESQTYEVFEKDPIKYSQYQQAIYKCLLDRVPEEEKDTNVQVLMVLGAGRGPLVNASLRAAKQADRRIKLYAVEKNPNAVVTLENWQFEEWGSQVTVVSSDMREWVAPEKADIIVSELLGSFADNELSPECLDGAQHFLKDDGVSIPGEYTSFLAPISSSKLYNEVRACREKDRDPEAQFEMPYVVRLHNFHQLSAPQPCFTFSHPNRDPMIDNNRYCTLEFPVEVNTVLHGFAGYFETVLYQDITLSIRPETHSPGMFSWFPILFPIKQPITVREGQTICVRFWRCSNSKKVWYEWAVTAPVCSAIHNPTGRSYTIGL
T1 sequence (Q9BQA1 whole entry partner): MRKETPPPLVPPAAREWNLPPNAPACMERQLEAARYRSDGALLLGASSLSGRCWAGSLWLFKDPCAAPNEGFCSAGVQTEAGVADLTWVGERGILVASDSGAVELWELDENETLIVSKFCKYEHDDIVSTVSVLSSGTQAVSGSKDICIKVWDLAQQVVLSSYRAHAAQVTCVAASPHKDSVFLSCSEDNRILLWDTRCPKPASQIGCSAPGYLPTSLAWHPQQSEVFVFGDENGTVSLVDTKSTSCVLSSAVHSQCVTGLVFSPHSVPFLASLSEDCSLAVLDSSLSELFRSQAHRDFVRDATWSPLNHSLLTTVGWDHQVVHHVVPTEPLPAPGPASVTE

In general, IC50 refers to the concentration that gives 50% inhibition. With `CC(=O)N1CCC(Nc2cc(C(=O)NC[C@@H](O)[C@@H]3Cc4ccc(OCc5ocnc5C)cc4CN3)ccn2)CC1` [Compound 44, 2-[(1-acetyl-4-piperidyl)amino]-N-[(2R)-2-hydroxy-2-[(3S)-7-[(4-methyloxazol-5-yl)methoxy]-1,2,3,4-tetrahydroisoquinolin-3-yl]ethyl]pyridine-4-carboxamide], the IC50 at PRMT5 [1] was 0.05 to 0.5 µM; at PRMT5 [2], 0.05 to 0.5 µM; against PRMT5 [3] it was < 0.05 µM; in test [4], ≥ 10 µM; in test [5] it was 1 to 10 µM. The “SAM/MTA Ratio” value on PRMT5 [3] is “A (a Ki ratio greater than or equal to 10 fold between the Ki in the presence of SAM and the Ki in the presence of MTA)”. In addition, the “MTAP Intact/Deleted Ratio” value in test [5] was “B* (an IC50 ratio greater than or equal to 3 fold but lower than 10 fold between the IC50 in the HAP1 MTAP-intact cell line and the HAP1 MTAP-deleted cell line)”.
Take `CCOc1cc(C(=O)N2[C@@H]3CCC[C@H]2COC3)ccc1C(=O)NC[C@@H](O)[C@@H]1Cc2ccc(OCc3ocnc3C)cc2CN1` [Compound 10, 4-((1R,5S)-3-oxa-9-azabicyclo[3.3.1]nonane-9-carbonyl)-2-ethoxy-N—((R)-2-hydroxy-2-((S)-7-((4-methyloxazol-5-yl)methoxy)-1,2,3,4-tetrahydroisoquinolin-3-yl)ethyl)benzamide]: the IC50 is 0.05 to 0.5 µM at PRMT5 [1]; 0.05 to 0.5 µM on PRMT5 [2]; < 0.05 µM against PRMT5 [3]; 1 to 10 µM in test [4]; < 1 µM in test [5]. Also, the “SAM/MTA Ratio” value at PRMT5 [3] is “A (a Ki ratio greater than or equal to 10 fold between the Ki in the presence of SAM and the Ki in the presence of MTA)”. The “MTAP Intact/Deleted Ratio” value in test [5] was “A* (an IC50 ratio greater than or equal to 10 fold between the IC50 in the HAP1 MTAP-intact cell line and the HAP1 MTAP-deleted cell line)”.
Take `CCOc1cc(C(=O)N2[C@@H]3CCC[C@H]2COC3)ccc1C(=O)NC[C@@H](O)[C@@H]1Cc2ccc(OCc3ccnn3C)cc2CN1` [Compound 6, 4-((1R,5S)-3-oxa-9-azabicyclo[3.3.1]nonane-9-carbonyl)-2-ethoxy-N—((R)-2-hydroxy-2-((S)-7-((1-methyl-1H-pyrazol-5-yl)methoxy)-1,2,3,4-tetrahydroisoquinolin-3-yl)ethyl)benzamide]: the IC50 is 0.05 to 0.5 µM on PRMT5 [1]; 0.5 to 5 µM at PRMT5 [2]; 0.05 to 0.5 µM on PRMT5 [3]; < 1 µM in test [4]; < 1 µM in test [5]. The “SAM/MTA Ratio” value on PRMT5 [3] was “A (a Ki ratio greater than or equal to 10 fold between the Ki in the presence of SAM and the Ki in the presence of MTA)”. Also, the “MTAP Intact/Deleted Ratio” value in test [5] was “C* (an IC50 ratio of less than 3 fold between the IC50 in the HAP1 MTAP-intact cell line and the HAP1 MTAP-deleted cell line)”.
On to `COc1ccc(C(=O)N2CCc3cc(C(=O)NC[C@@H](O)[C@@H]4Cc5ccc(OCc6ocnc6C)cc5CN4)ccc3C2)cc1` [Compound 21, N—((R)-2-hydroxy-2-((S)-7-((4-methyloxazol-5-yl)methoxy)-1,2,3,4-tetrahydroisoquinolin-3-yl)ethyl)-2-(4-methoxybenzoyl)-1,2,3,4-tetrahydroisoquinoline-6-carboxamide], for which the IC50 on PRMT5 [1] was 0.05 to 0.5 µM; at PRMT5 [2], 0.05 to 0.5 µM; against PRMT5 [3], < 0.05 µM; in test [4], 1 to 10 µM; in test [5] it was < 1 µM. In addition, the “SAM/MTA Ratio” value on PRMT5 [3] is “A (a Ki ratio greater than or equal to 10 fold between the Ki in the presence of SAM and the Ki in the presence of MTA)”. Also, the “MTAP Intact/Deleted Ratio” value in test [5] is “A* (an IC50 ratio greater than or equal to 10 fold between the IC50 in the HAP1 MTAP-intact cell line and the HAP1 MTAP-deleted cell line)”.
`Cc1ncoc1COc1ccc2c(c1)CN[C@H]([C@H](O)CNC(=O)c1cccc(-c3ccccn3)c1)C2` [Compound 25, N—((R)-2-hydroxy-2-((S)-7-((4-methyloxazol-5-yl)methoxy)-1,2,3,4-tetrahydroisoquinolin-3-yl)ethyl)-3-(pyridin-2-yl)benzamide]: the IC50 at PRMT5 [1] was 0.05 to 0.5 µM; at PRMT5 [2] it was ≥ 5 µM; against PRMT5 [3], 0.05 to 0.5 µM; in test [4], ≥ 10 µM; in test [5], 1 to 10 µM. Moreover, the “SAM/MTA Ratio” value on PRMT5 [3] was “A (a Ki ratio greater than or equal to 10 fold between the Ki in the presence of SAM and the Ki in the presence of MTA)”. Moreover, in test [5], the “MTAP Intact/Deleted Ratio” value was “C* (an IC50 ratio of less than 3 fold between the IC50 in the HAP1 MTAP-intact cell line and the HAP1 MTAP-deleted cell line)”.
For the molecule `Cc1ncoc1COc1ccc2c(c1)CN[C@H]([C@H](O)CNC(=O)c1cc(NC3CC4(CCC4)C3)nc(N3CCCCC3)n1)C2` [Compound 57, N-[(2R)-2-hydroxy-2-[(3S)-7-[(4-methyloxazol-5-yl)methoxy]-1,2,3,4-tetrahydroisoquinolin-3-yl]ethyl]-2-(1-piperidyl)-6-(spiro[3.3]heptan-2-ylamino)pyrimidine-4-carboxamide], the IC50 at PRMT5 [1] was 0.05 to 0.5 µM; on PRMT5 [2] it was 0.05 to 0.5 µM; at PRMT5 [3], 0.05 to 0.5 µM; in test [4], 1 to 10 µM; in test [5], < 1 µM. At PRMT5 [3], the “SAM/MTA Ratio” value was “A (a Ki ratio greater than or equal to 10 fold between the Ki in the presence of SAM and the Ki in the presence of MTA)”. The “MTAP Intact/Deleted Ratio” value in test [5] is “A* (an IC50 ratio greater than or equal to 10 fold between the IC50 in the HAP1 MTAP-intact cell line and the HAP1 MTAP-deleted cell line)”.
Regarding `CCN(C)c1cc(C(=O)NC[C@@H](O)[C@@H]2Cc3ccc(OCc4ocnc4C)cc3CN2)cc(NC2CCC2)n1` [Compound 24, 2-(cyclobutylamino)-6-(ethyl(methyl)amino)-N—((R)-2-hydroxy-2-((S)-7-((4-methyloxazol-5-yl)methoxy)-1,2,3,4-tetrahydroisoquinolin-3-yl)ethyl)isonicotinamide], the IC50 on PRMT5 [1] was 0.05 to 0.5 µM; on PRMT5 [2], 0.05 to 0.5 µM; against PRMT5 [3], 0.05 to 0.5 µM; in test [4], ≥ 10 µM; in test [5], < 1 µM. The “SAM/MTA Ratio” value at PRMT5 [3] was “A (a Ki ratio greater than or equal to 10 fold between the Ki in the presence of SAM and the Ki in the presence of MTA)”. Also, in test [5], the “MTAP Intact/Deleted Ratio” value is “A* (an IC50 ratio greater than or equal to 10 fold between the IC50 in the HAP1 MTAP-intact cell line and the HAP1 MTAP-deleted cell line)”.
Turning to `Cc1ncoc1COc1ccc2c(c1)CN[C@H]([C@H](O)CNC(=O)c1cc(NC3CCC3)nc(N3CCN(C(C)C)CC3)c1)C2` [Compound 30, 2-(cyclobutylamino)-N—((R)-2-hydroxy-2-((S)-7-((4-methyloxazol-5-yl)methoxy)-1,2,3,4-tetrahydroisoquinolin-3-yl)ethyl)-6-(4-isopropylpiperazin-1-yl)isonicotinamide], the IC50 is 0.05 to 0.5 µM at PRMT5 [1]; 0.05 to 0.5 µM on PRMT5 [2]; < 0.05 µM at PRMT5 [3]; ≥ 10 µM in test [4]; ≥ 10 µM in test [5]. Moreover, the “SAM/MTA Ratio” value on PRMT5 [3] is “A (a Ki ratio greater than or equal to 10 fold between the Ki in the presence of SAM and the Ki in the presence of MTA)”. Further, in test [5], the “MTAP Intact/Deleted Ratio” value is “C* (an IC50 ratio of less than 3 fold between the IC50 in the HAP1 MTAP-intact cell line and the HAP1 MTAP-deleted cell line)”.
As for `CCOc1cc(C(=O)N2C3CCC2COC3)ccc1C(=O)NC[C@@H](O)[C@@H]1Cc2ccc(OCc3ocnc3C)cc2CN1` [Compound 12, 4-(3-oxa-8-azabicyclo[3.2.1]octane-8-carbonyl)-2-ethoxy-N—((R)-2-hydroxy-2-((S)-7-((4-methyloxazol-5-yl)methoxy)-1,2,3,4-tetrahydroisoquinolin-3-yl)ethyl)benzamide], the IC50 on PRMT5 [1] is 0.05 to 0.5 µM; at PRMT5 [2], 0.5 to 5 µM; at PRMT5 [3] it was 0.05 to 0.5 µM; in test [4] it was < 1 µM; in test [5] it was < 1 µM. Also, the “SAM/MTA Ratio” value at PRMT5 [3] was “A (a Ki ratio greater than or equal to 10 fold between the Ki in the presence of SAM and the Ki in the presence of MTA)”. Further, the “MTAP Intact/Deleted Ratio” value in test [5] is “B* (an IC50 ratio greater than or equal to 3 fold but lower than 10 fold between the IC50 in the HAP1 MTAP-intact cell line and the HAP1 MTAP-deleted cell line)”.
Regarding `Cc1ncoc1COc1ccc2c(c1)CN[C@H]([C@H](O)CNC(=O)c1ccc(C(=O)N3CCOCC3)cc1)C2` [Compound 3, N—((R)-2-hydroxy-2-((S)-7-((4-methyloxazol-5-yl)methoxy)-1,2,3,4-tetrahydroisoquinolin-3-yl)ethyl)-4-(morpholine-4-carbonyl)benzamide], the IC50 on PRMT5 [1] is 0.05 to 0.5 µM; at PRMT5 [2], 0.5 to 5 µM; against PRMT5 [3] it was 0.05 to 0.5 µM; in test [4], ≥ 10 µM; in test [5] it was 1 to 10 µM. On PRMT5 [3], the “SAM/MTA Ratio” value was “A (a Ki ratio greater than or equal to 10 fold between the Ki in the presence of SAM and the Ki in the presence of MTA)”. In test [5], the “MTAP Intact/Deleted Ratio” value is “C* (an IC50 ratio of less than 3 fold between the IC50 in the HAP1 MTAP-intact cell line and the HAP1 MTAP-deleted cell line)”.

These data come from US12403137B2, “Compounds and methods of use” (Tango Therapeutics, Inc., priority 2019, dated 2025).
